Experimental data reported in patent publication US9102614B2, “Naphth-2-ylacetic acid derivatives to treat AIDS” (Gilead Sciences, Inc., priority 2010, dated 2015).

What follows are molecules tested on HIV-IIIb (assay: Test A: Antiviral Assays in MT4 Cells). Conditions: Human immunodeficiency virus 1, IIIB, MT4, 120 h.
Assay type: cell-based
In short: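 MT-4 cells pre-infected with HIV-IIIb (0.004 m.o.i.) at 37 °C, then plated with 3-fold serially diluted compound (10 concentrations, quadruplicate, RPMI 1640/10% FBS). After 5 days at 37 °C, cell viability read by CellTiter-Glo chemiluminescence; mock-infected cells run in parallel.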

SMILES	EC50 [nM]
Cc1cc2c(F)cc(F)cc2c(-c2ccc3c4c(ccnc24)CCO3)c1[C@H](OC(C)(C)C)C(=O)O [Compound 110, (S)-2-tert-Butoxy-2-((R)-1-(2,3-dihydropyrano[4,3,2-de]quinolin-7-yl)-5,7-difluoro-3-methylnaphthalen-2-yl)acetic acid]	67

Same assay, conditions: Human immunodeficiency virus 1, IIIB, MT4, 120 h, MT-4 cells infected with HIV-IIIb (0.004 m.o.i.), 5 days of incubation, CellTiter-Glo chemiluminescence readout; read-out: EC50

SMILES	EC50 [nM]
Cc1cc2cc(-c3cn(C)cn3)ccc2c(-c2ccc(Cl)cc2)c1[C@H](OC(C)(C)C)C(=O)O [Compound 64, (S)-2-tert-Butoxy-2-(1-(4-chlorophenyl)-3-methyl-6-(1-methyl-1H-imidazol-4-yl)naphthalen-2-yl)acetic acid]	52
CC(C)(C)O[C@H](C(=O)O)c1c(CF)cc2ccccc2c1-c1ccc2c3c(ccnc13)CCO2 [Compound 31, (S)-2-tert-Butoxy-2-((R)-1-(2,3-dihydropyrano[4,3,2-de]quinolin-7-yl)-3-(fluoromethyl)naphthalen-2-yl)acetic acid]	110
Cc1cc2c(C(N)=O)cc(F)cc2c(-c2ccc3c4c(ccnc24)CCO3)c1[C@H](OC(C)(C)C)C(=O)O (atropisomer, axis not shown) [Compound 155]	29000
Cc1cc2ccc(Cl)cc2c(-c2ccc(Cl)cc2)c1C(OC(C)(C)C)C(=O)O (stereo not shown) [Compound 149, 2-tert-Butoxy-2-(7-chloro-1-(4-chlorophenyl)-3-methylnaphthalen-2-yl)acetic acid]	200
Cc1cc2cc(C3CC3)c(F)cc2c(-c2ccc3c4c(ccnc24)CCO3)c1[C@H](OC(C)(C)C)C(=O)O (atropisomer, axis not shown) [Compound 170]	29000
Cc1cc2ccc(C#CC3(N)CCCCC3)cc2c(-c2ccc(Cl)cc2)c1[C@H](OC(C)(C)C)C(=O)O [Compound 100, (S)-2-(7-((1-Aminocyclohexyl)ethynyl)-1-(4-chlorophenyl)-3-methylnaphthalen-2-yl)-2-tert-butoxyacetic acid]	23
Cc1cc2c(-c3cncnc3)cccc2c(-c2ccc(Cl)cc2)c1C(OC(C)(C)C)C(=O)O (stereo not shown) [Compound 41, 2-tert-Butoxy-2-(1-(4-chlorophenyl)-3-methyl-5-(pyrimidin-5-yl)naphthalen-2-yl)acetic acid]	400
Cc1cc2ccccc2c(-c2ccc(Cl)cc2)c1[C@H](OC(C)(C)C)C(=O)O [Compound 3K, (S)-2-tert-butoxy-2-(1-(4-chlorophenyl)-3-methylnaphthalen-2-yl)acetic acid]	56

Same assay, conditions: MT-4 cells infected with HIV-IIIb (0.004 m.o.i.), 5 days of incubation, CellTiter-Glo chemiluminescence readout; read-out: EC50

SMILES	EC50 [nM]
Cc1cc2ccccc2c(C2=CC(C)(C)CCC2=O)c1[C@H](OC(C)(C)C)C(=O)O [Compound 157]	10000
Cc1cc2ccccc2c(-c2ccc3c4c(cc[n+]([O-])c24)CCO3)c1[C@H](OC(C)(C)C)C(=O)O [Compound 23, 7-((R)-2-((S)-tert-Butoxy(carboxy)methyl)-3-methylnaphthalen-1-yl)-2,3-dihydropyrano[4,3,2-de]quinoline 6-oxide]	24
Cc1c([C@H](OC(C)(C)C)C(=O)O)c(-c2ccc3c4c(ccnc24)CCO3)c2ccccc2c1F [Compound 122, (2S)-2-tert-butoxy-2-((R)-1-(2,3-dihydropyrano[4,3,2-de]quinolin-7-yl)-4-fluoro-3-methylnaphthalen-2-yl)acetic acid]	36
Cc1cc2ccccc2c(-c2ccc3c4c(ccnc24)CCO3)c1[C@H](OC(C)(C)C)C(=O)O [Compound 6D, (S)-2-tert-Butoxy-2-((R)-1-(2,3-dihydropyrano[4,3,2-de]quinolin-7-yl)-3-methylnaphthalen-2-yl)acetic acid]	14
